Measurements from patent publication US20220274927A1, “MEMBRANE-ACTIVE ANTI-BACTERIAL COMPOUNDS AND USES THEREOF” (Trustees of Dartmouth College, priority 2019, published 2022).
Converted amounts (≈) assume the structure as drawn. “Also recorded” adds a separate entry of the source. Read-outs that look alike come from different tables or passages of the source.

Assays:
[1] = test system: membrane of gram-positive bacteria; conditions: previously reported; cited from earlier work
[2] = test system: MRSA; conditions: HTS hit, previously reported by Applicants; cited from earlier work
[3] = test system: eukaryotic membranes; conditions: cited from earlier work
[4] = test system: E. faecalis SMC374; test: Antimicrobial susceptibility MIC, E. faecalis SMC374; format: cell-based; conditions: Enterococcus faecalis
From the text: (§1) The first set of compounds evaluated were analogs at the C-7 and C-8 positions of the initial quinolone hit DNAC-2 since the other HTS hits identified (data not shown) were substituted at these positions (Table 1). Applicants first explored modification at the C-7 position with a small series of electron-donating and withdrawing substituents. […] However, analogs containing electron donating groups at C-7 including ethyl 7, benzyloxy 8, methoxy 9 and methylthio 10 are weakly active displaying MICs of 320-640 μg/mL indicating electron-donating substituents at C-7 are poorly tolerated. […] The C-8 position was evaluated with trifluoromethyl 4 and trifluoromethoxy 5 containing the optimal C-7 substituents. Both 4 and 5 are equipotent to the corresponding C-7 analogs 2 and 3 indicating some flexibility of the quinolone scaffold.
(§2) The compounds maintain activity against Staphylococcus epidermidis; however, 31, 111 and 123 all lose considerable potency against Enterococcus faecalis and Enterococcus faecium, which contribute heavily, along with MRSA, to healthcare-associated infections.

[5] = test system: S. aureus MW2; test: Antimicrobial susceptibility MIC, S. aureus MW2; format: cell-based; conditions: Staphylococcus aureus
From the text: as §1, §2

[6] = test system: MRSA clinical strain S. aureus FPR3757; test: Minimum bactericidal concentration (MBC) against S. aureus FPR3757; format: cell-based
[7] = test system: E. coli DHMC-1; test: Antimicrobial susceptibility MIC, E. coli DHMC-1; format: cell-based; conditions: Escherichia coli, DHMC1; E. coli strain DHMC-1
From the text: as §1, §2

[8] = test system: K. pneumonia 7117; test: Antimicrobial susceptibility MIC, K. pneumonia 7117; format: cell-based; conditions: Klebsiella pneumoniae; K. pneumonia strain 7117
From the text: as §1, §2

[9] = test system: E. cloacae ND-21; test: Antimicrobial susceptibility MIC, E. cloacae ND-21; format: cell-based; conditions: Enterobacter cloacae, ND21; E. cloacae strain ND-21
From the text: as §1, §2

[10] = test system: S. aureus (MRSA); test: In vitro time-kill assay; format: cell-based; conditions: 1× MIC, initial inoculum 10^5 CFU, plating over six hours
Procedure: FIG. 4 illustrates in vitro time-kill analysis of methicillin resistant Staphylococcus aureus (MRSA). Bacterial killing was monitored by measuring the colony forming unit (CFU) for six hours when treated with compounds 22, 31, 117, and 123 at 1× the minimum inhibitory concentration (MIC) of each compound. The CFU at each time point was determined by plating and then compared to a dimethyl sulfoxide (DMSO) control.
While the MIC data confirmed that these compounds were at least bacteriostatic, Applicants wanted to test for bactericidal properties of both the aminoquinoline and aminoquinolone scaffolds. […] The kinetics of bacterial killing was assessed in vitro using time-kill assays by incubating compounds at 1× their MIC with an initial inoculum of 10^5 colony forming units (CFU) of S. aureus and removing aliquots at various time points to determine the residual CFU by plating.

[11] = test system: methicillin-resistant S. aureus (FPR3757); test: MIC against clinical MRSA strain FPR3757 in Mueller-Hinton broth (CLSI); format: cell-based, Staphylococcus aureus
From the text: as §1

[12] = test system: S. aureus NIH04008; test: Antimicrobial susceptibility MIC, S. aureus NIH04008; format: cell-based; conditions: Staphylococcus aureus
From the text: as §1, §2

[13] = test system: E. faecium ATCC19579; test: Antimicrobial susceptibility MIC, E. faecium ATCC19579; format: cell-based; conditions: Enterococcus faecium
From the text: as §1, §2

[14] = test system: C. albicans; test: Antimicrobial susceptibility, C. albicans; format: cell-based, Candida albicans; conditions: highest concentration tested
From the text: as §2

[15] = test system: S. aureus (strain USA300); test: Transmission electron microscopy of treated cells; format: cell-based; conditions: 1× MIC, after 10 minutes, vs DMSO
Procedure: FIGS. 6A, 6B and 6C illustrate transmission electron microscopy (TEM) imaging of MRSA USA300 treated with compounds 22 and 31.
Transmission electron microscopy (TEM) and fluorescence microscopy (FM) allowed Applicants to directly observe the effects of the novel 4-aminoquinolines […] 5-aminoquinolones on the cell morphology of staphylococci.
(§3) These cellular defects were not seen in any of the control cells treated with DMSO. Fluorescent microscopy was performed on a S. aureus (strain COL) strain after treatment with either DMSO, 31 or 123 for 30 minutes followed by staining with FM 4-64 (red membrane stain), bodipy-vancomycin (Van-FL, green stain), and Hoechst (blue DNA stain).

[16] = test system: S. aureus (strain COL); test: Fluorescent microscopy of membrane, cell wall and DNA; format: cell-based; conditions: 1× MIC, 30 minutes, vs DMSO
Procedure: FIGS. 7A and 7B illustrate fluorescent microscopy (FM) analysis of the membrane, cell wall, and DNA in MRSA. FM of COL MRSA strain treated with compound 123 (FIG. 7B, bottom row) at 1×MIC and DMSO (FIG. 7A, top row) for 30 minutes followed by staining with FM-64 (far left column, 0.5 μg/mL), VanFL (second column, 1 μg/mL), and Hoechst (third column, 1 μg/mL) for 5 minutes and washed with 1× phosphate buffered saline (PBS) before imaging (fourth column, overlay).
as §3

[17] = test system: sheep erythrocytes; test: in vitro; format: cell-based; conditions: sheep, 32 μg/mL
Procedure: (§4) FIG. 8 illustrates percent hemolysis analysis of sheep erythrocytes. Concentration-dependent hemolysis was measured by monitoring the optical density (OD)540 of PBS-washed sheep erythrocytes. Complete hemolysis (100%) was confirmed by treatment of erythrocytes with Triton X-100. Data points represent the mean±SD of triplicate experiments.
(§5) The macromolecular synthesis assay, TEM, and FM experiments were all consistent with membrane disruption. […] The high membrane selectivity of the 5-aminoquinolin-4-ones in this assay is impressive and is in accordance with the observed therapeutic index (CC50/MIC).

[18] = test system: clinical methicillin-resistant Staphylococcus aureus (MRSA) isolates; test: MIC against panel of MRSA / staphylococcal strains (text summaries); format: cell-based
From the text: as §1, §2

[19] = test system: Staphylococcus simulans; test: Macromolecular synthesis assays (radiolabeled precursor incorporation); format: cell-based; conditions: for inhibition of DNA, RNA, protein and cell-wall synthesis: 0.5×, 1× and 5× MIC; for inhibition of macromolecular processes at 5× MIC: 5× the MIC, DNA, RNA, protein, cell wall precursor incorporation
From the text: FIG. 5 illustrates macromolecular synthesis assays (representative data with 123). Time-course for inhibition of incorporation of radiolabeled precursors [^3H]-L-isoleucine (protein), [^3H]-thymidine (DNA), [^3H]-uridine (RNA), and [^3H]-glucosamine (cell wall) in S. simulans by 123 at 0.5×, 1× and 5×MIC. Data are expressed as the percentage of inhibition relative to the DMSO only negative control. The positive control antibiotics denoted by closed circles were used at 10× MIC. Data represent the mean±standard deviation (SD) of triplicate experiments.
Classical macromolecular synthesis assays were performed to provide insight on the putative mechanism of action of the most promising quinoline 31 and quinolone 123 candidates. Disruption of bacterial membranes is not only rapid, but interferes with all major metabolic activities in the cell and is thus easily distinguished by macromolecular synthesis assays. […] The control antibiotics ciprofloxacin, rifampicin, vancomycin and tetracycline were included as inhibitors of DNA, RNA, cell wall, and protein synthesis, respectively. The cells were quenched at various time points with 10% trichloroacetic acid (TCA), filtered, washed and the amount of precursor incorporation was quantified by scintillation counting.

[20] = test system: S. epidermidis NIH04003; test: Antimicrobial susceptibility MIC, S. epidermidis NIH04003; format: cell-based; conditions: Staphylococcus epidermidis; S. epidermidis strain NIH04003
From the text: as §1, §2

[21] = test system: E. faecalis DHMC #1; test: Antimicrobial susceptibility MIC, E. faecalis DHMC #1; format: cell-based; conditions: Enterococcus faecalis; E. faecalis strain DHMC #1
From the text: as §1, §2

[22] = test system: S. aureus N325; test: Antimicrobial susceptibility MIC, S. aureus N325; format: cell-based; conditions: Staphylococcus aureus; S. aureus strain N325
From the text: as §1, §2

[23] = test system: S. aureus COL; test: Antimicrobial susceptibility MIC, S. aureus COL; format: cell-based; conditions: Staphylococcus aureus; S. aureus strain COL
From the text: as §1, §2

[24] = test system: S. aureus membranes (versus erythrocyte membranes); test: in vitro; format: cell-based, sheep; conditions: sheep
Procedure: as §4, §5

[25] = test system: E. faecium DHMC #1; test: Antimicrobial susceptibility MIC, E. faecium DHMC #1; format: cell-based; conditions: Enterococcus faecium; E. faecium strain DHMC #1
From the text: as §1, §2

[26] = test system: S. aureus NRS71; test: Antimicrobial susceptibility MIC, S. aureus NRS71; format: cell-based; conditions: Staphylococcus aureus; S. aureus strain NRS71
From the text: as §1, §2

[27] = Staphylococcus aureus, MRSA, MRSA clinical strain FPR3757, Mueller-Hinton broth, CLSI guidelines, complete inhibition of observable growth, read-out: MIC
[28] = six S. aureus strains of Table 9, read-out: MIC towards all six S. aureus strains

Row | Structure (SMILES) | MIC ([5]; MW2) [µg/mL] | MBC relative to MIC [6] | MIC [7] [µg/mL] | MIC [8] [µg/mL] | MIC [9] [µg/mL] | time-kill: CFU reduction [10] | MIC [11, 27] [µg/mL] | MIC ([12]; NIH04008) [µg/mL] | MIC against C. albicans as multiple of MIC [14] [× × MIC] | cell morphology in TEM images [15] | DNA and cell wall staining (Hoechst, Van-FL) [16] | membrane staining (FM 4-64) [16] | hemolysis [17] | MIC [18, 28] [µg/mL] | inhibition of DNA, RNA, protein and cell-wall synthesis [19] | inhibition of macromolecular processes at 5× MIC [19] | also measured
1 | O=c1cc(C(F)(F)F)[nH]c2c(OC(F)(F)F)cccc12 [DNAC-2] |  |  |  |  |  |  |  |  |  |  |  |  |  |  |  |  | membrane effect on gram-positive bacteria [1]: partial membrane depolarization; MIC against MRSA [2]: 8 µg/mL (≈ 26.9 µM); toxicity towards eukaryotic membranes [3]: no toxicity towards eukaryotic membranes
2 | FC(F)(F)c1ccc2c(Nc3ccc(Cl)c(Cl)c3)cc(C(F)(F)F)nc2c1 [Compound 22] | 0.125 (≈ 0.294 µM) | MBCs equal to their MIC values | > 4 | > 4 | > 4 | reduced the CFU below the limit of detection at four to six hours | 0.06 (≈ 0.141 µM) | 0.125 (≈ 0.294 µM) | >16 |  |  |  |  |  |  |  | MIC ([4]; SMC374): 0.125 µg/mL (≈ 0.294 µM); MIC ([11]; Staphylococcus aureus, MRSA): 0.0625 µg/mL (≈ 0.147 µM); MIC ([13]; ATCC19579): 0.125 µg/mL (≈ 0.294 µM)
3 | FC(F)(F)c1ccc(Nc2cc(C(F)(F)F)nc3cc(C(F)(F)F)ccc23)nc1 [Compound 31] | 0.125 (≈ 0.294 µM) | MBCs equal to their MIC values | > 64 | > 64 | > 64 | reduced the CFU below the limit of detection at four to six hours | 0.25 (≈ 0.588 µM) | 0.125 (≈ 0.294 µM) | >16 | cross-wall-septum formation with reduced splitting; also recorded: mesosome-like membrane inclusions | little or no change compared to the DMSO control | membrane defects | None of the compounds except 76, displayed any hemolysis | 0.125 to 0.25 (≈ 0.294 to 0.588 µM) | concentration-dependent inhibition of DNA, RNA, protein and cell-wall synthesis | completely inhibited all macromolecular processes | MIC ([4]; E. faecalis strain SMC374, read-out: MIC): 2 µg/mL (≈ 4.7 µM); fold loss of potency (MIC) relative to the comparator ([11]; MRSA FPR3757 MIC ratio): 4 fold; MIC ([13]; E. faecium strain ATCC19579, read-out: MIC): 0.25 to 1 µg/mL (≈ 0.588 to 2.35 µM)
4 | O=c1cc(C(F)(F)F)[nH]c2cc(F)cc(Nc3ccc(C(F)(F)F)cn3)c12 [Compound 123] |  | MBCs equal to their MIC values |  |  |  | reduced the CFU below the limit of detection at four to six hours | < 0.06 |  |  | cross-wall-septum formation with reduced splitting; also recorded: mesosome-like membrane inclusions | little or no change compared to the DMSO control | membrane defects | None of the compounds except 76, displayed any hemolysis | < 0.06 | concentration-dependent inhibition of DNA, RNA, protein and cell-wall synthesis | completely inhibited all macromolecular processes | MIC [20]: < 0.06 µg/mL; MIC ([5]; S. aureus strain MW2, read-out: MIC): < 0.06 µg/mL; MIC [21]: 8 µg/mL (≈ 20.4 µM); MIC [22]: < 0.06 µg/mL; MIC [23]: < 0.06 µg/mL; selectivity ratio [24]: > 500; MIC [25]: 8 µg/mL (≈ 20.4 µM); MIC ([11]; MRSA clinical strain FPR3757, Mueller-Hinton broth, CLSI guidelines, complete inhibition of observable growth): <0.06 µg/mL; MIC ([12]; S. aureus strain NIH04008, read-out: MIC): < 0.06 µg/mL; MIC ([18]; read-out: MIC against numerous clinical MRSA isolates): ≤ 0.06 µg/mL; MIC [26]: < 0.06 µg/mL
